The values below come from patent US20160074301A1, “ANTI-AGING SKIN CARE COMPOSITIONS AND REGIMENS” (The Procter & Gamble Company, priority 2014, published 2016).

One assay has as its system skin barrier formation. In words: Eigengene analysis, skin barrier formation, treated cultured human keratinocytes. It counts as cell-based.
Assay [1] has as its system "Clear and Detox" module genes. The experiment in a line: Eigengene of "Clear and Detox" co-expression module (FIG. 8). To be noted: cultured human keratinocytes.
Assay [2] has as its system "Repair and Rebuild" associated genes. In words: Eigengene of "Repair and Rebuild" co-expression module (FIG. 9). To be noted: cultured human keratinocytes.

palmitoyl-lysine-threonine [Pal-KT]: in the assay with skin barrier formation, the “successful aging effect in skin barrier formation” value is on record as “Effects relating to successful aging were also identified”. The “effect on "Clear and Detox" eigengene (FIG. 8)” value in assay [1] is “significantly up-regulates”.
Turning to “palmitoyl-lysine-threonine-threonine-lysine-serine [Pal-KTTKS]”, the “effect on "Repair and Rebuild" eigengene (FIG. 9)” value in assay [2] is “significantly up-regulate”.
